These results are taken from patent publication US9844536B2, “3-(1H-imidazo[4,5-C]pyridin-2-yl)-1H-pyrazolo[3,4-C]pyridine and therapeutic uses thereof” (Samumed, LLC, priority 2014, dated 2017).

Common to all, as to type: cell-based
In one assay the test system is LL29 cells. Description: Inhibition of the fibrotic process (αSMA staining) in TGF-β1 treated primary human fibroblasts from IPF patients. Particulars: Fibroblast, 96 h, TGF-β1 20 ng/mL, 4 days, dose-response 10 μM to 1.87 nM, read-out: Inhibition of fibrosis EC50. Summed up: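 LL29 IPF lung fibroblasts in 1% FBS were stimulated with TGF-β1 (20 ng/mL) and treated 4 days at 37 °C with compound (11 points, 10 μM–1.87 nM, 0.1% DMSO). The % αSMA-positive cells, imaged after excluding SYTOX-positive dead cells, was normalized to TGF-β1/DMSO wells. EC50 came from nonlinear regression over triplicates.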

Assay [1] relates to primary human mesenchymal stem cells (hMSCs). Description: Chondrogenesis induction screen in primary human mesenchymal stem cells (nodules, Rhodamine B/Nile Red). Particulars: 144 h, 6 days; for EC (100% TGF-beta3 activity): concentration required to induce chondrogenesis equivalent to TGF-β3 (10 ng/mL), read-out: Conc (nM) of 100% TGF-β3 activity; for Emax: relative to TGF-β3 (10 ng/mL) positive control, read-out: Max. Activity as % TGF-β3 activity. How it is done: The above synthesized compounds were screened using primary human mesenchymal stem cells (hMSCs) to determine their ability to induce chondrogenesis (process by which cartilage is developed).
Primary human mesenchymal stem cells (hMSCs) were purchased from Lonza (Walkersville, Md.) and expanded in Mesenchymal Stem Cell Growth Media (Lonza). Cells between passage 3 and 6 were used for the experiments.
Each compound was dissolved in DMSO as a 10 mM stock and used to prepare compound source plates. Serial dilution (1:3, 6-point dose-response curves from 2700 nM to 10 nM) and compound transfer was performed using the ECHO 550 (Labcyte, Sunnyvale, Calif.) into 96-well clear bottom assay plates (Greiner Bio-One) with appropriate DMSO backfill for a final DMSO concentration of 0.03%. hMSCs were plated at 20,000 cells/well in 250 μL/well Incomplete Chondrogenic Induction Medium (Lonza; DMEM, dexamethasone, ascorbate, insulin-transferrin-selenium [ITS supplement], gentamycin-amphotericin [GA-1000], sodium pyruvate, proline and L-glutamine). TGF-β3 (10 ng/mL) was used as a positive control for differentiation while negative control wells were treated with 75 nL DMSO for normalization and calculating EC50 values. Cells were incubated at 37° C. and 5% CO2 for 6 days. To image chondrogenic nodules, the cells were fixed using 4% formaldehyde (Electron Microscopy Sciences), and stained with 2 μg/mL Rhodamine B (Sigma-Aldrich) and 20 μM Nile Red (Sigma-Aldrich) [Johnson K., et. al, A Stem Cell-Based Approach to Cartilage Repair, Science, (2012), 336(6082), 717-721]. The nodules imaged (4 images per well at 4× magnification) by excitation at 531 nm and emission at 625 nm and quantified using the CellInsight CX5 (Thermo Scientific). Number of nodules in each well was normalized to the average of 3 DMSO treated wells on the same plate using Excel (Microsoft Inc.). The normalized averages (fold change over DMSO) of 3 replicate wells for each compound concentration were calculated. Due to solubility limitations of some of the compounds, curve fitting was incomplete leading to inaccurate EC50 determinations.
Using TGF-03 as a positive control, the concentration of test compounds required to induce equivalent levels of chondrogenesis is reported. In addition, the maximum activity of each compound and the respective dose that each compound reached maximum chondrogenesis activity is reported.

For assay [2], the system named is Wnt pathway (Sp5-Luc reporter, SW480 cells). Kind of assay: Sp5-Luc reporter gene screening assay for Wnt activity in SW480 colon carcinoma cells. Particulars: Homo sapiens. In outline: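 IC50 values come from variable-slope four-parameter fits of luciferase signal normalized to DMSO wells. Stable Sp5-Luc reporter SW480 colon carcinoma cells were exposed to compounds in a 3-fold dilution series (source plates from 10 mM stock) for forty-two hours at 37 °C.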
A general note: Reporter assays use an easily measured gene product as a stand-in for the process of interest.

Another assay relates to ARPE-19 cells. Description: Transdifferentiation of ARPE-19 cells into eye neuronal cells [photoreceptors], PAX6 staining. Particulars: Homo sapiens, fixed at 40 hours, PAX6 antibody staining, normalized to DMSO. How it is done: The above synthesized compounds were screened using ARPE-19 cells [a spontaneously arising retinal pigment epithelia (RPE) cell line] to determine their ability to transdifferentiate ARPE-19 into eye neuronal cells [photoreceptors].
ARPE-19 cells are cultured in standard culture medium containing Dulbecco's Modified Eagle's Medium and Ham's F12 Nutrient Mixture (DMEM/F12) mix (1:1)+GlutaMax with 1% penicillin-Streptomycin and 10% FBS (Fetal Bovine Serum). Cells are incubated at 37° C. with 5% CO2. Cells are trypsinized and plated onto 384-well pre-spotted plate at a density of 3000 cells/well in 50 uL of media. Plating media: DMEM/F12 (1:1)+3% charcoal filtered-FBS+GlutaMax+1% pen/Strep. Cells are incubated at 37° C. with 5% CO2. At 40 hours, cells were fixed for 15 min with 10% Buffered Formalin. Cells were then washed 3 times with PBS for 5 min each, permeablize using 0.3% Triton X-100 in 1×PBS for 30 min, block for 1 hr with 2% BSA in 1×PBS with 0.1% Triton X-100. The primary antibody (1:100 PAX6 Santa Cruz Biotech; sc-81649) was diluted and 10 μL/well was added to the cells. The cells were incubated overnight at 4° C. […] Readings were normalized to DMSO only treated cells, and normalized activities were utilized for EC50 calculations using the dose-response log (activator) vs. response-variable slope (four parameters) nonlinear regression feature available in GraphPad Prism 5.0 or 6.0.

For `CCCC(=O)Nc1cncc(-c2cc3c(-c4nc5c(-c6cccc(F)c6)nccc5[nH]4)n[nH]c3cn2)c1` [Compound 17, N-(5-(3-(4-(3-Fluorophenyl)-1H-imidazo[4,5-c]pyridin-2-yl)-1H-pyrazolo[3,4-c]pyridin-5-yl)pyridin-3-yl)butyramide], the EC50 (usually the concentration giving half of the maximal effect) with LL29 cells was at most 9 nM. Besides, in assay [1], the EC (100% TGF-beta3 activity) turned out to be 67.8 nM and the Emax stood at 10%. In assay [2], the IC50 (in general, the concentration at which inhibition is half-maximal) stood at 10.7 nM.

With `Nc1cncc(-c2cc3c(-c4nc5c(-c6ccccc6F)nccc5[nH]4)n[nH]c3cn2)c1` [Compound 55, 5-(3-(4-(2-Fluorophenyl)-1H-imidazo[4,5-c]pyridin-2-yl)-1H-pyrazolo[3,4-c]pyridin-5-yl)pyridin-3-amine], the EC50 in the assay on LL29 cells is at most 9 nM. In addition, the EC (100% TGF-beta3 activity) in assay [1] stood at 145 nM. For the same compound, in assay [2], the IC50 worked out at 16.6 nM.

`c1cncc(-c2cc3c(-c4nc5c(-c6cccnc6)nccc5[nH]4)n[nH]c3cn2)c1` [Compound 82, 5-(Pyridin-3-yl)-3-(4-(pyridin-3-yl)-1H-imidazo[4,5-c]pyridin-2-yl)-1H-pyrazolo[3,4-c]pyridine]: the EC (100% TGF-beta3 activity) in assay [1] turned out to be 44.5 nM. This compound returned an IC50 in assay [2] of 1.7 nM.

On to `FC1(F)CCN(Cc2cncc(-c3cc4c(-c5nc6c(N7CCCCC7)nccc6[nH]5)n[nH]c4cn3)c2)C1` [Compound 181, 5-(5-((3,3-Difluoropyrrolidin-1-yl)methyl)pyridin-3-yl)-3-(4-(piperidin-1-yl)-1H-imidazo[4,5-c]pyridin-2-yl)-1H-pyrazolo[3,4-c]pyridine], for which the EC50 in the assay on LL29 cells stood at 140 nM. Besides, the EC (100% TGF-beta3 activity) in assay [1] is 68.1 nM. In assay [2], this compound displayed an IC50 of 61.6 nM.

`Cc1cn(-c2nccc3[nH]c(-c4n[nH]c5cnc(-c6cncc(NC(=O)C(C)(C)C)c6)cc45)nc23)cn1` [Compound 190, N-(5-(3-(4-(4-Methyl-1H-imidazol-1-yl)-1H-imidazo[4,5-c]pyridin-2-yl)-1H-pyrazolo[3,4-c]pyridin-5-yl)pyridin-3-yl)pivalamide]: in assay [1], the EC (100% TGF-beta3 activity) is 71.8 nM and the Emax came to 100%. The compound further showed an IC50 in assay [2] of 32.8 nM.

Turning to `CCNCc1cncc(-c2cc3c(-c4nc5c(-c6ccsc6)nccc5[nH]4)n[nH]c3cn2)c1` [Compound 266, N-((5-(3-(4-(Thiophen-3-yl)-1H-imidazo[4,5-c]pyridin-2-yl)-1H-pyrazolo[3,4-c]pyridin-5-yl)pyridin-3-yl)methyl)ethanamine], the EC50 with LL29 cells is at most 9 nM. For the same compound, in assay [1], the EC (100% TGF-beta3 activity) turned out to be 67.7 nM and the Emax is 30%. The compound further gave an IC50 in assay [2] of 11.3 nM.

Take `CC(C)Nc1cncc(-c2cc3c(-c4nc5c(-c6ccoc6)nccc5[nH]4)n[nH]c3cn2)c1` [Compound 298, 5-(3-(4-(Furan-3-yl)-1H-imidazo[4,5-c]pyridin-2-yl)-1H-pyrazolo[3,4-c]pyridin-5-yl)-N-isopropylpyridin-3-amine]: the EC50 in the assay on LL29 cells came to 65 nM. Also, in assay [1], the EC (100% TGF-beta3 activity) was 219 nM and the Emax worked out at 300%. The compound further showed an IC50 in assay [2] of 15 nM.

In the case of `O=C(Nc1cncc(-c2cc3c(-c4nc5c(-c6cccs6)nccc5[nH]4)n[nH]c3cn2)c1)C1CC1` [Compound 331, N-(5-(3-(4-(Thiophen-2-yl)-1H-imidazo[4,5-c]pyridin-2-yl)-1H-pyrazolo[3,4-c]pyridin-5-yl)pyridin-3-yl)cyclopropanecarboxamide], in the assay with LL29 cells, the EC50 was at most 9 nM. Moreover, the EC (100% TGF-beta3 activity) in assay [1] was found to be 68.4 nM. This compound also returned an IC50 in assay [2] of 16.4 nM.

For `CC(C)(C)C(=O)Nc1cncc(-c2cc3c(-c4nc5c(-c6ccc(F)s6)nccc5[nH]4)n[nH]c3cn2)c1` [Compound 346, N-(5-(3-(4-(5-Fluorothiophen-2-yl)-1H-imidazo[4,5-c]pyridin-2-yl)-1H-pyrazolo[3,4-c]pyridin-5-yl)pyridin-3-yl)pivalamide], the EC50 with LL29 cells is at most 9 nM. Moreover, in assay [1], the EC (100% TGF-beta3 activity) was 40.9 nM. Moreover, the IC50 in assay [2] turned out to be 12.6 nM.

`Cc1ccc(-c2nccc3[nH]c(-c4n[nH]c5cnc(-c6cncc(N)c6)cc45)nc23)s1` [Compound 367, 5-(3-(4-(5-Methylthiophen-2-yl)-1H-imidazo[4,5-c]pyridin-2-yl)-1H-pyrazolo[3,4-c]pyridin-5-yl)pyridin-3-amine]: the EC50 in the assay with LL29 cells is at most 9 nM. For the same compound, in assay [1], the EC (100% TGF-beta3 activity) was determined as 259 nM and the Emax stood at 10%. Besides, the IC50 in assay [2] amounted to 2.1 nM.

On to `CC(=O)c1ccc(-c2nccc3[nH]c(-c4n[nH]c5cnc(-c6cccnc6)cc45)nc23)s1` [Compound 394, 1-(5-(2-(5-(Pyridin-3-yl)-1H-pyrazolo[3,4-c]pyridin-3-yl)-1H-imidazo[4,5-c]pyridin-4-yl)thiophen-2-yl)ethan-1-one], for which the EC50 in the assay with LL29 cells worked out at 14 nM. Further, in assay [1], the EC (100% TGF-beta3 activity) came to 142 nM and the Emax amounted to 10%. The compound further gave an IC50 in assay [2] of 5.5 nM.

Consider `Cc1ccncc1-c1cc2c(-c3nc4c(-c5cc(F)cc(CNS(C)(=O)=O)c5)nccc4[nH]3)n[nH]c2cn1` [Compound 421, N-(3-Fluoro-5-(2-(5-(4-methylpyridin-3-yl)-1H-pyrazolo[3,4-c]pyridin-3-yl)-1H-imidazo[4,5-c]pyridin-4-yl)benzyl)methanesulfonamide], for which, in the assay on LL29 cells, the EC50 is over 10000 nM. Besides, in assay [1], the EC (100% TGF-beta3 activity) turned out to be 122 nM and the Emax was 10%. This compound yielded an IC50 in assay [2] of 9.9 nM.

As to `Cn1cc(-c2cc3c(-c4nc5c(-c6cccc(F)c6)nccc5[nH]4)n[nH]c3cn2)cn1` [Compound 940, 3-(4-(3-Fluorophenyl)-1H-imidazo[4,5-c]pyridin-2-yl)-5-(1-methyl-1H-pyrazol-4-yl)-1H-pyrazolo[3,4-c]pyridine], in the assay on LL29 cells, the 50% effective concentration (EC50) was at most 9 nM. In addition, in assay [1], the EC (100% TGF-beta3 activity) is 110 nM and the Emax amounted to 100%. In assay [2], this compound returned a half-maximal inhibitory concentration (IC50) of 10 nM.

As for `NC1CN(c2cncc(-c3cc4c(-c5nc6c(-c7cccc(F)c7)nccc6[nH]5)n[nH]c4cn3)n2)C1` [Compound 942, 1-(6-(3-(4-(3-Fluorophenyl)-1H-imidazo[4,5-c]pyridin-2-yl)-1H-pyrazolo[3,4-c]pyridin-5-yl)pyrazin-2-yl)azetidin-3-amine], the figures for the EC50 with ARPE-19 cells and in the assay on LL29 cells were 5 nM and 303 nM, respectively. Moreover, the IC50 in assay [2] stood at 46 nM.

Consider `COc1cncc(-c2cc3c(-c4nc5c(-c6cccc(F)c6)nccc5[nH]4)n[nH]c3cn2)c1` [Compound 948, 3-(4-(3-Fluorophenyl)-1H-imidazo[4,5-c]pyridin-2-yl)-5-(5-methoxypyridin-3-yl)-1H-pyrazolo[3,4-c]pyridine], for which, in the assay with LL29 cells, the EC50 is at most 9 nM. In assay [1], the EC (100% TGF-beta3 activity) is 174 nM and the Emax was 900%. The same compound gave an IC50 in assay [2] of 10 nM.
